Laboratory results reported in patent publication US10047051B2, “Substituted pyridines and method of use” (AbbVie S.á{acute over (.)}r.l., priority 2015, dated 2018).

Tests used:
CFTR G551D mutant = molecular target: T1, CFTR G551D mutant (Homo sapiens, UniProt P13569, G551D); experiment: YFP-halide influx assay for the CFTR-G551D mutation (HEK293 cells); format: cell-based; settings: forskolin 10.67 μM
T1 construct: expressed in transfected cells; host or cells: HEK293 cells, reverse transfection with plasmids
From the text: (§1) The YFP halide influx assay measured the functionality of the cystic fibrosis Transmembrane Conductance regulator (CFTR) channels. The assay was used to evaluate the capacity of compounds to increase the channel opening of existing mutant CFTR channels in the membrane. It makes use of the observation that the yellow fluorescent protein (YFP) variant YFP H148Q, I152L, F47L has its fluorescence substantially quenched by halide ions like Cl^− and I^− (Galietta, L. J. V., Haggie, P. M., Verkman, A. S., 2001. Green fluorescent protein-based halide indicators with improved chloride and iodide affinities. FEBS Lett. 499, 220-224. doi:10.1016/S0014-5793(01)02561-3).
For this purpose, HEK293-cells were seeded in 96 well plates. During seeding, the cells were reverse-transfected with plasmid vectors that direct the expression of the CFTR G551D mutant and of the YFP reporter. Cells were incubated at 37° C., 5% CO2 for 24 hours so as to allow for sufficient expression of the CFTR protein.
(§2) The I^−-induced quenching of fluorescence was recorded immediately after injection of I^− for 7 seconds. The capacity of a compound to increase the channel opening was directly correlated with the decrease in fluorescence, and was expressed as (1−(fluorescence after 7 seconds (F)/fluorescence before injection (F0))) and an EC50 was derived from a (1−F/F0) vs compound concentration plot.

CFTR ΔF508 mutant = molecular target: T2, CFTR ΔF508 mutant (Homo sapiens, UniProt P13569, DEL508-508); experiment: YFP-halide influx assay for the CFTR-ΔF508 mutation (CFBE41o- cells); format: cell-based; settings: forskolin 10.67 μM; for EC50: from (1−F/F0) vs concentration plot
T2 construct: expressed in transfected cells; host or cells: CFBE41o- cells, adenoviral transduction
From the text: as §1, with “channels in the cystic fibrosis bronchial epithelium cell line CFBE41o-.” for “channels.”, “open probability” for “channel opening”, “existing” for “existing mutant”, “doi:10.1016/S0014-5793(01)02561-3; Nagai, T., Ibata, K., Park, E. S., Kubota, M., Mikoshiba, K., Miyawaki, A., 2002. A variant of yellow fluorescent protein with fast and efficient maturation for cell-biological applications. Nat. Biotechnol. 20, 87-90. doi: 10.1038/nbt0102-87).” for “doi:10.1016/S0014-5793(01)02561-3).”
For this purpose, CFBE41o-cells were seeded in 384 well plates (3000 CFBE cells/well). One day after seeding, the CFBE cells were transduced with adenoviral vectors that direct the expression of the CFTR ΔF508 mutant and of the YFP reporter. Cells were incubated at 27° C., 5% CO2 for 24 hours so as to allow for the proper folding and migration to the membrane of the CFTR channel or treated with a CFTR modulator during 24 hours at 37° C.
as §2, with “I-induced” for “I^−-induced”, “recorded on an” for “recorded”, “iodide” for “I^−”, “2 minutes on an FDSS/μCell (Hamamatsu).” for “7 seconds.”, “36” for “7”

T2 sequence (P13569 with tags, fused parts or gaps DEL508-508): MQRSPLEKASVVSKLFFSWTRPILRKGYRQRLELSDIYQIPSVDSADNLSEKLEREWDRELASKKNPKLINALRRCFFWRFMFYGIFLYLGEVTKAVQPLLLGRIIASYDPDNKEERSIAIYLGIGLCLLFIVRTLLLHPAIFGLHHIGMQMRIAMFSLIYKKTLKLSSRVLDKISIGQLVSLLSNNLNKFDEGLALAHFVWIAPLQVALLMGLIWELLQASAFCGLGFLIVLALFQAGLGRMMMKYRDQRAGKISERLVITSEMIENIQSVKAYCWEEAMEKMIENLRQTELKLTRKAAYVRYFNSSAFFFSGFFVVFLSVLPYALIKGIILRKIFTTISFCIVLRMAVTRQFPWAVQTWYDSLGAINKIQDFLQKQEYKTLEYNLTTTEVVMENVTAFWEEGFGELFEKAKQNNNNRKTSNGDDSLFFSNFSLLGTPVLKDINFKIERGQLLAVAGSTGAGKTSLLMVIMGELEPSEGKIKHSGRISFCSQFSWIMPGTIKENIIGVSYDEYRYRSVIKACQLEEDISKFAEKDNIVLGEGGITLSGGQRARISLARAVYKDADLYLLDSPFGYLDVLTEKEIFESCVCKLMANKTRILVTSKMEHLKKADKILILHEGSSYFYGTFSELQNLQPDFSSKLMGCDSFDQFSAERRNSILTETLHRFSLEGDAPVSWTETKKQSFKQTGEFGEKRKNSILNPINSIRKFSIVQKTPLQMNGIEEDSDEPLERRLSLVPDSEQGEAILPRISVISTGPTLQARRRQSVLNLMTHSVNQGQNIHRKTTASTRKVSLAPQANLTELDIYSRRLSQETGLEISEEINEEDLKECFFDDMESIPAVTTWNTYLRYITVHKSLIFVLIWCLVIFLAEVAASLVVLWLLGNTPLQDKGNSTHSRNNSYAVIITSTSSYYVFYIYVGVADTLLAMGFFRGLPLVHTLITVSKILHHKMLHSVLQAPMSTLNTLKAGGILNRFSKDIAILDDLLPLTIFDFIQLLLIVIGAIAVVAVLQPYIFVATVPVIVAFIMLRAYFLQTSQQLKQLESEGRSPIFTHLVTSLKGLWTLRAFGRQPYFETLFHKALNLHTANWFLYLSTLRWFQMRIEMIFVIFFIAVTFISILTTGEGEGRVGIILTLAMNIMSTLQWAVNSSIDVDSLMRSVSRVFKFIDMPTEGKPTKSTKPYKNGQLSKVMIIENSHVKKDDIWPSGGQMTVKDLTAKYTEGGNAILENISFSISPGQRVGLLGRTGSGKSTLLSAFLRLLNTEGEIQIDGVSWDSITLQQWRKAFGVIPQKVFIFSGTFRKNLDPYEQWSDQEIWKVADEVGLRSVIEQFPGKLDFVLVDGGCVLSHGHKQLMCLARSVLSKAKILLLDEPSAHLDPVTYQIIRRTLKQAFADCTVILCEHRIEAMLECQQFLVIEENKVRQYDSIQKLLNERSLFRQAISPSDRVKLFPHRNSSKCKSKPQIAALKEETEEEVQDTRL
T1 sequence (P13569 whole entry G551D): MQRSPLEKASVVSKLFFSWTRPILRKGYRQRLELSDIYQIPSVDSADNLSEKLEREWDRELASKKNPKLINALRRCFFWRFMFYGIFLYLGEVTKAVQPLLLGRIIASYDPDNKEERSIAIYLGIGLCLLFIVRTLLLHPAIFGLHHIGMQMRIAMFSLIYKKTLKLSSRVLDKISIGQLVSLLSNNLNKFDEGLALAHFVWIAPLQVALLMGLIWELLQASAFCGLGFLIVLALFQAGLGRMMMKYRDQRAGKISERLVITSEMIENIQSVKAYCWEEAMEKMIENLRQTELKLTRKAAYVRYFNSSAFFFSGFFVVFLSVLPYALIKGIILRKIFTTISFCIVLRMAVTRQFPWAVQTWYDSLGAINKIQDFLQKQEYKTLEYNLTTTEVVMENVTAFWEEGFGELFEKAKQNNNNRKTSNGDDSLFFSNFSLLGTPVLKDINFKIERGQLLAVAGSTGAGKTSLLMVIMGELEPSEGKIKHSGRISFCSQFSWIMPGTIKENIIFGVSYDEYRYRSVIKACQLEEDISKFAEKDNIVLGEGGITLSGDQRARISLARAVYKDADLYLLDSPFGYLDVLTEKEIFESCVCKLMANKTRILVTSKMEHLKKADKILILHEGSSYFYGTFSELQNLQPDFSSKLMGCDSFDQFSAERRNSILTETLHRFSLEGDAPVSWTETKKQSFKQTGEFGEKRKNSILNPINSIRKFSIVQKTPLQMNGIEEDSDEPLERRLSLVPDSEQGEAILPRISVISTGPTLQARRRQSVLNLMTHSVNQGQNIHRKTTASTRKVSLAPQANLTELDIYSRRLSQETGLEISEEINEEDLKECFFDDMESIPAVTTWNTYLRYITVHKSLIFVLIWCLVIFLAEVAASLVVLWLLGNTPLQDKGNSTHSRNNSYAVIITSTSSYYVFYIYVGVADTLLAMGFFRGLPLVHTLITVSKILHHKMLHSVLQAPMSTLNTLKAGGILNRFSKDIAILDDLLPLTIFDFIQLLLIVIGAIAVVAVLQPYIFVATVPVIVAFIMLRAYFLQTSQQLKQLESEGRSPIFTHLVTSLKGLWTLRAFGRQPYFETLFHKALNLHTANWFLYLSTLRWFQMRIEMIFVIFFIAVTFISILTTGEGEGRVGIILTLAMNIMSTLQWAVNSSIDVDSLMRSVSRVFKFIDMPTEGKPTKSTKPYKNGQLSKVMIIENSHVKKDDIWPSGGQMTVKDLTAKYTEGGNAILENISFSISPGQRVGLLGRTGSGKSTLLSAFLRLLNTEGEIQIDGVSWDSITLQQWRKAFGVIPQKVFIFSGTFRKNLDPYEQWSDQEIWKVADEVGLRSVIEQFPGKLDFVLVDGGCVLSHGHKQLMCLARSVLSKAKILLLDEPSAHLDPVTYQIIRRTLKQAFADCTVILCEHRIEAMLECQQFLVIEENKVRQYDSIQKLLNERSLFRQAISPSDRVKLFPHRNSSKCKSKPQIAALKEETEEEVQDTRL

SMILES	% Activation (CFTR G551D mutant)	EC50 (CFTR G551D mutant)	% Activation (CFTR ΔF508 mutant)	EC50 (CFTR ΔF508 mutant)
CN(C)C(=O)C1CN(C(=O)c2ncc(S(=O)(=O)c3ccc(OC(F)(F)F)cc3)cc2N)C1 [Compound 62, 1-[(3-amino-5-{[4-(trifluoromethoxy)phenyl]sulfonyl}pyridin-2-yl)carbonyl]-N,N-dimethylazetidine-3-carboxamide]	49.3%	1390 nM	91.8%	140 nM
Nc1cc(S(=O)(=O)c2ccc(OC(F)(F)F)cc2F)cnc1C(=O)NC[C@H]1CCOC1 [Compound 115, 3-amino-5-{[2-fluoro-4-(trifluoromethoxy)phenyl]sulfonyl}-N-[(3R)-tetrahydrofuran-3-ylmethyl]pyridine-2-carboxamide]	40.6%	900 nM	102.3%	34.9 nM
Nc1cc(S(=O)(=O)CC2CCCO2)cnc1C(=O)NCC(O)C(F)(F)F (stereo not drawn) [Compound 238, 3-amino-5-[(tetrahydrofuran-2-ylmethyl)sulfonyl]-N-(3,3,3-trifluoro-2-hydroxypropyl)pyridine-2-carboxamide]	4.8%	> 10000 nM	53.7%	538 nM
Nc1cc(S(=O)(=O)c2ccc(OC(F)(F)F)cc2)cnc1C(=O)N[C@@H]1CCCOC1 [Compound 140, 3-amino-N-[(3R)-tetrahydro-2H-pyran-3-yl]-5-{[4-(trifluoromethoxy)phenyl]sulfonyl}pyridine-2-carboxamide]	39.9%	> 10000 nM	97.7%	51 nM
COCC(O)CNC(=O)c1ncc(S(=O)(=O)c2ccc(C(F)(F)F)cc2)cc1N (stereo not drawn) [Compound 239, 3-amino-N-(2-hydroxy-3-methoxypropyl)-5-{[4-(trifluoromethyl)phenyl]sulfonyl}pyridine-2-carboxamide]	76.5%	1050 nM	95.8%	29.5 nM
Nc1cc(S(=O)(=O)c2ccc(OC(F)(F)F)cc2)cnc1C(=O)NCCC1CC1 [Compound 152, 3-amino-N-(2-cyclopropylethyl)-5-{[4-(trifluoromethoxy)phenyl]sulfonyl}pyridine-2-carboxamide]	60.2%	1130 nM	93.3%	119 nM
CC(C)(C)CNC(=O)c1ncc(S(=O)(=O)c2ccc(C(F)(F)F)cc2)cc1N [Compound 191, 3-amino-N-(2,2-dimethylpropyl)-5-{[4-(trifluoromethyl)phenyl]sulfonyl}pyridine-2-carboxamide]	11.7%	> 10000 nM	99.7%	157 nM
C[C@H](O)CNC(=O)c1ncc(S(=O)(=O)N(C)Cc2ccc(F)cc2)cc1N [Compound 269, 3-amino-5-[(4-fluorobenzyl)(methyl)sulfamoyl]-N-[(2S)-2-hydroxypropyl]pyridine-2-carboxamide]	44.8%	1310 nM	107.0%	7.8 nM
CCS(=O)(=O)c1cc(N)c(C(=O)NC[C@H](C)O)nc1-c1ccc(F)cc1 [Compound 263, 3-amino-5-(ethylsulfonyl)-6-(4-fluorophenyl)-N-[(2S)-2-hydroxypropyl]pyridine-2-carboxamide]	5.99%	2000 nM	97.2%	142 nM
Nc1cc(S(=O)(=O)c2ccc(OC(F)(F)F)cc2)cnc1C(=O)N1CC(CO)C1 [Compound 66, (3-amino-5-{[4-(trifluoromethoxy)phenyl]sulfonyl}pyridin-2-yl)[3-(hydroxymethyl)azetidin-1-yl]methanone]	60.8%	1550 nM	106.0%	12.5 nM
CO[C@H]1C[C@H](NC(=O)c2ncc(S(=O)(=O)c3ccc(OC(F)(F)F)cc3)cc2N)C1 [Compound 120, 3-amino-N-(trans-3-methoxycyclobutyl)-5-{[4-(trifluoromethoxy)phenyl]sulfonyl}pyridine-2-carboxamide]	54.0%	1110 nM	96.5%	76.8 nM
Nc1cc(S(=O)(=O)c2ccc(C(F)(F)F)cc2)cnc1C(=O)NCCOCC1CCCO1 (stereo not drawn) [Compound 190, 3-amino-N-[2-(tetrahydrofuran-2-ylmethoxy)ethyl]-5-{[4-(trifluoromethyl)phenyl]sulfonyl}pyridine-2-carboxamide]	67.4%	1880 nM	96.6%	135 nM
CN1CC[C@H](NC(=O)c2ncc(S(=O)(=O)c3ccc(OC(F)(F)F)cc3)cc2N)C1 [Compound 207, 3-amino-N-[(3S)-1-methylpyrrolidin-3-yl]-5-{[4-(trifluoromethoxy)phenyl]sulfonyl}pyridine-2-carboxamide]	15.0%	> 10000 nM	78.0%	> 667 nM
CC(C)OCC(O)CNC(=O)c1ncc(S(=O)(=O)c2ccc(C(F)(F)F)cc2F)cc1N (stereo not drawn) [Compound 133, 3-amino-5-{[2-fluoro-4-(trifluoromethyl)phenyl]sulfonyl}-N-[2-hydroxy-3-(propan-2-yloxy)propyl]pyridine-2-carboxamide]	84.2%	253 nM	105.9%	3.7 nM
C[C@H](O)CNC(=O)c1ncc(S(=O)(=O)N2CCCC2CO)cc1N (mixture of isomers) [Compound 268, 3-amino-5-{[2-(hydroxymethyl)pyrrolidin-1-yl]sulfonyl}-N-[(2S)-2-hydroxypropyl]pyridine-2-carboxamide]	0.3%	–	37.1%	> 667 nM
Nc1cc(S(=O)(=O)N2CCC(F)CC2)cnc1C(=O)NCC(O)C(F)(F)F (stereo not drawn) [Compound 195, 3-amino-5-[(4-fluoropiperidin-1-yl)sulfonyl]-N-(3,3,3-trifluoro-2-hydroxypropyl)pyridine-2-carboxamide]	61.8%	1250 nM	98.7%	26.2 nM
C[C@@H]1CCCN1S(=O)(=O)c1cnc(C(=O)NCC(O)C(F)(F)F)c(N)c1 (stereo partly drawn) [Compound 179, 3-amino-5-{[(2R)-2-methylpyrrolidin-1-yl]sulfonyl}-N-(3,3,3-trifluoro-2-hydroxypropyl)pyridine-2-carboxamide]	52.6%	1350 nM	100.4%	27.7 nM
Nc1cc(S(=O)(=O)c2ccc(C(F)(F)F)cc2)cnc1C(=O)NC[C@H]1CCOC1 [Compound 101, 3-amino-N-[(3R)-tetrahydrofuran-3-ylmethyl]-5-{[4-(trifluoromethyl)phenyl]sulfonyl}pyridine-2-carboxamide]	71.2%	1580 nM	106.5%	64.2 nM
CC(C)(C)C1CCN(S(=O)(=O)c2cnc(C(=O)NCC(O)C(F)(F)F)c(N)c2)CC1 (stereo not drawn) [Compound 197, 3-amino-5-[(4-tert-butylpiperidin-1-yl)sulfonyl]-N-(3,3,3-trifluoro-2-hydroxypropyl)pyridine-2-carboxamide]	76.4%	337 nM	106.7%	3.9 nM
